Measured values taken from patent US12246076B2, “Radiolabeled compounds for in vivo imaging of gastrin-releasing peptide receptor (GRPR) and treatment of GRPR-related disorders” (PROVINCIAL HEALTH SERVICES AUTHORITY, priority 2022, dated 2025).

Assays:
[1] = In vivo plasma stability, radio-HPLC of plasma at 15 min p.i.; details: healthy male NRG mice (n=3), 15 min post-injection
Experimental: In vivo plasma stability studies were conducted for ^68Ga-labeled tracers to evaluate metabolic stability at 15 min p.i. Approximately 5.56 to 15.3 MBq of ^68Ga-LW01025, ^68Ga-LW01029, ^68Ga-LW01107, ^68Ga-LW01108, ^68Ga-LW01110, ^68Ga-LW01102, or ^68Ga-LW01142 were injected via tail vein into three male NRG mice, respectively. At 15 min p.i., mice were sedated and euthanized and their blood and urine were collected. The plasma was extracted from whole blood with ACN, vortexed, centrifuged, and the supernatant collected. The plasma and urine were analyzed with radio-HPLC (C18 analytical column; flow rate: 2.0 mL/min). The HPLC condition was same as the HPLC condition for quality control.
The in vivo studies were similarly performed according to the procedure set forth in Example 1. […] The present invention has been described with regard to one or more embodiments.

[2] = Ex vivo biodistribution in PC-3 tumor-bearing mice; details: male, mouse, iv, total radioactivity, 1 h post-injection, n = 4; for tissue uptake at 1 h: mice bearing PC-3 tumor xenografts; for tissue to tissue ratio at 1 h: uptake ratio
Experimental: All imaging and biodistribution studies were performed using male NOD.Cg-Rag1^tm1MoM II2rg^tm1WI/SzJ (NRG) mice and conducted according to the guidelines established by the Canadian Council on Animal Care and approved by Animal Ethics Committee of the University of British Columbia. For tumor inoculations, mice were anesthetized by inhalation with 2% isoflurane in oxygen and implanted subcutaneously with 5×10^6 PC-3 cells below the left shoulder. Imaging and biodistribution studies were performed only after tumors grew to 5-8 mm in diameter.
For PET/CT imaging studies, ˜3-4 MBq of the ^68Ga-labeled tracer was injected through the tail vein. Mice were allowed to recover and roam freely in the cages after injecting the tracer. At 45 min post-injection (p.i.), mice were sedated again and positioned on the scanner. First, a 10 min CT scan was conducted for localization and attenuation correction for reconstruction of PET images, before a 10 min PET image was acquired. Heating pads were used during the entire procedure to keep the mice warm. For ex vivo biodistribution studies, mice were injected with ˜1.5-3 MBq of the ^68Ga-labeled tracer. At 1 h p.i., mice were euthanized, blood was drawn from heart, and organs/tissues of interest were collected, rinsed with PBS, blotted dry, weighed, and counted using an automated gamma counter. The uptake in each organ/tissue was normalized to the injected dose and expressed as the percentage of the injected dose per gram of tissue (% ID/g).
All imaging and biodistribution studies were performed using male NOD.Cg-Rag1tm1Mom II2rgtm1WjI/SzJ (NRG) mice and conducted according to the guidelines established by the Canadian Council on Animal Care and approved by Animal Ethics Committee of the University of British Columbia. For tumor inoculations, mice were anesthetized by inhalation with 2% isoflurane in oxygen and implanted subcutaneously with 5×10^6 PC-3 cells below the left shoulder. Imaging and biodistribution studies were performed only after tumors grew to 5-8 mm in diameter.
For PET/CT imaging studies, ˜5 MBq of the ^68Ga-labeled tracer was injected through the tail vein. Mice were allowed to recover and roam freely in the cages after injecting the tracer. At 45 min post-injection (p.i.), mice were sedated again and positioned on the scanner. First, a 10 min CT scan was conducted for localization and attenuation correction for reconstruction of PET images, before a 10 min PET image was acquired. Heating pads were used during the entire procedure to keep the mice warm. For ex vivo biodistribution studies, mice were injected with ˜3 MBq of the 68Ga-labeled tracer. At 1 h p.i., mice were euthanized, blood was drawn from heart, and organs/tissues of interest were collected, rinsed with PBS, blotted dry, weighed, and counted using an automated gamma counter.

[3] = biological target: T1, GRPR (Homo sapiens, UniProt P30550); details: literature (Heimbrook 1991; Lin 1995); cited from earlier work
T1 construct: endogenous in cells; host or cells: PC-3 prostate cancer cells
T1 sequence (P30550 whole entry): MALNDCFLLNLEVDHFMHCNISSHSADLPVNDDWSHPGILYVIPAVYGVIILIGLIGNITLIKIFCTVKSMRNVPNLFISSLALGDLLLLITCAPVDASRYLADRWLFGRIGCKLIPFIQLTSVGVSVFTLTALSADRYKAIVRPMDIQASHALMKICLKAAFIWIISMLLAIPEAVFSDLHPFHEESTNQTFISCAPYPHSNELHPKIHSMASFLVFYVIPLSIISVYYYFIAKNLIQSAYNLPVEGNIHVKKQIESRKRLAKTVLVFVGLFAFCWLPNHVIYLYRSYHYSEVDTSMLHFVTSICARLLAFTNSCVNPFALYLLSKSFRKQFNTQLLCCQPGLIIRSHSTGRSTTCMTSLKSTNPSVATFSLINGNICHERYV

[4] = NRG, PC-3 tumor, Biodistribution PC3 tumor Mean
[5] = NRG, adrenal, Biodistribution Adrenal Mean
[6] = NRG, bone, Biodistribution Bone Mean
[7] = NRG, brain, Biodistribution Brain Mean
[8] = NRG, fat, Biodistribution Fat Mean
[9] = NRG, heart, Biodistribution Heart Mean
[10] = NRG, kidneys, Biodistribution Kidneys Mean
[11] = NRG, large intestine, Biodistribution Large Intestine Mean
[12] = NRG, liver, Biodistribution Liver Mean
[13] = NRG, lungs, Biodistribution Lungs Mean
[14] = NRG, muscle, Biodistribution Muscle Mean
[15] = NRG, pancreas, Biodistribution Pancreas Mean
[16] = NRG, small intestine, Biodistribution Small Intestine Mean
[17] = NRG, spleen, Biodistribution Spleen Mean
[18] = NRG, stomach, Biodistribution Stomach Mean
[19] = NRG, testes, Biodistribution Testes Mean
[20] = NRG, whole blood, Biodistribution Blood Mean

Compound | remaining intact in plasma [1] [%] | tissue uptake at 1 h [2, 4] [%ID/g] | tissue uptake at 1 h [2, 5] [%ID/g] | tissue uptake at 1 h [2, 6] [%ID/g] | tissue uptake at 1 h [2, 7] [%ID/g] | tissue uptake at 1 h [2, 8] [%ID/g] | tissue uptake at 1 h [2, 9] [%ID/g] | tissue uptake at 1 h [2, 10] [%ID/g] | tissue uptake at 1 h [2, 11] [%ID/g] | tissue uptake at 1 h [2, 12] [%ID/g] | tissue uptake at 1 h [2, 13] [%ID/g] | tissue uptake at 1 h [2, 14] [%ID/g] | tissue uptake at 1 h [2, 15] [%ID/g] | tissue uptake at 1 h [2, 16] [%ID/g] | tissue uptake at 1 h [2, 17] [%ID/g] | tissue uptake at 1 h [2, 18] [%ID/g] | tissue uptake at 1 h [2, 19] [%ID/g] | tissue uptake at 1 h [2, 20] [%ID/g] | further results
CC(C)C[C@@H](CN1CSC[C@H]1C(N)=O)NC(=O)[C@H](Cc1c[nH]cn1)NC(=O)CNC(=O)[C@@H](NC(=O)[C@H](C)NC(=O)[C@H](Cc1c[nH]c2ccccc12)NC(=O)[C@H](CCC(N)=O)NC(=O)[C@@H](Cc1ccccc1)NC(=O)CN1CCC(NC(=O)CN2CCN(CC(=O)O)CCN(CC(=O)O)CCN(CC(=O)O)CC2)CC1)C(C)C [^68Ga-LW01045, metal not drawn] | 83.3±1.45 | 10.2 | 0.57 | 0.19 | 0.05 | 0.09 | 0.27 | 2.51 | 0.37 | 2.61 | 0.75 | 0.15 | 2.81 | 1.04 | 0.47 | 0.32 | 0.19 | 0.76 | –
CC(C)C[C@@H](CN1CSC[C@H]1C(N)=O)NC(=O)[C@H](Cc1cnc[nH]1)NC(=O)CN(C)C(=O)[C@@H](NC(=O)[C@H](C)NC(=O)[C@H](Cc1c[nH]c2ccccc12)NC(=O)[C@H](CCC(N)=O)NC(=O)[C@@H](Cc1ccccc1)NC(=O)CN1CCC(NC(=O)CN2CCN(CC(=O)O)CCN(CC(=O)O)CCN(CC(=O)O)CC2)CC1)C(C)C [^68Ga-LW01090, metal not drawn] | 67.1±4.76 | 15.7 | 0.58 | 0.1 | 0.03 | 0.11 | 0.24 | 3.52 | 0.41 | 0.64 | 0.55 | 0.2 | 1.98 | 0.66 | 0.3 | 0.4 | 0.23 | 0.76 | tissue to tissue ratio at 1 h ([2]; NOD.Cg-Rag1tm1Mom Il2rgtm1Wjl/SzJ (NRG), tumor and kidney, Tumor/kidney Mean): 4.48; tissue to tissue ratio at 1 h ([2]; NOD.Cg-Rag1tm1Mom Il2rgtm1Wjl/SzJ (NRG), tumor and pancreas, Tumor/pancreas Mean): 7.95; tissue to tissue ratio at 1 h ([2]; NRG, PC-3 tumor / bone, Tumor/bone Mean): 175; tissue to tissue ratio at 1 h ([2]; NRG, PC-3 tumor / muscle, Tumor/muscle Mean): 82.3
litorin | – | – | – | – | – | – | – | – | – | – | – | – | – | – | – | – | – | – | binding affinity to the GRPR [3]: very strong binding affinity
